This passage reports IC50, Ki and cytotoxicity results from ChEMBL document CHEMBL2069175, “Antiplasmodial activities of 4-aminoquinoline-statine compounds” (Bioorg Med Chem Lett, 2012).

Data set [1] deals with Plasmodium falciparum. The data set can be described thus: microbe, parasite or virus in culture. To be noted: W2, 72 h.
Description: Antiplasmodial activity against chloroquine-resistant Plasmodium falciparum W2 after 72 hrs by parasite lactate dehydrogenase assay
Data set [2] can be described thus: Inhibition of Plasmodium vivax PLM4 using Lys-Glu-Phe-Val-Phe-NPhe-Ala-Leu-Lys as substrate by spectrophotometry.
Data set [3] in a line: Inhibition of Plasmodium ovale PLM4 using Lys-Glu-Phe-Val-Phe-NPhe-Ala-Leu-Lys as substrate by spectrophotometry.
Data set [4] is described as follows: Inhibition of Plasmodium falciparum PLM4 using Lys-Glu-Phe-Val-Phe-NPhe-Ala-Leu-Lys as substrate by spectrophotometry.
The target of a further data set is Plasmepsin II (Plasmodium falciparum, UniProt P46925). The data set can be described thus: Inhibition of Plasmodium falciparum PLM2 using Lys-Glu-Phe-Val-Phe-NPhe-Ala-Leu-Lys as substrate by spectrophotometry.
Sequence of Plasmepsin II (P46925 whole entry): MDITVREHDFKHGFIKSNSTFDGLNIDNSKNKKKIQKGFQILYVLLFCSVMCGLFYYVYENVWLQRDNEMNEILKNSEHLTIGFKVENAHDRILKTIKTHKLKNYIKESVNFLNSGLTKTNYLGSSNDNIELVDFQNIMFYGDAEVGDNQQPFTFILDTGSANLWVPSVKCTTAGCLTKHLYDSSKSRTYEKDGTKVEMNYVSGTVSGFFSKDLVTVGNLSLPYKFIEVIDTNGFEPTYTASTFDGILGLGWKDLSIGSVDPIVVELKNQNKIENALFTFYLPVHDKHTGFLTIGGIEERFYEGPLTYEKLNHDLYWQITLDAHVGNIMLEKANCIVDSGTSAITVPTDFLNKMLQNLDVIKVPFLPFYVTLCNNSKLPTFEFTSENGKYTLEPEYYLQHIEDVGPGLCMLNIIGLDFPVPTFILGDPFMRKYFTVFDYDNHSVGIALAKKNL
For data set [5], the system named is Plasmodium falciparum. The data set can be described thus: microbe, parasite or virus in culture. To be noted: D10, 72 h.
Description: Antiplasmodial activity against chloroquine-sensitive Plasmodium falciparum D10 after 72 hrs by parasite lactate dehydrogenase assay
The target of the next data set is Cathepsin D (Homo sapiens, UniProt P07339). The data set can be described thus: Inhibition of human cathepsin D.
Sequence of Cathepsin D (P07339 65-162 limits assumed): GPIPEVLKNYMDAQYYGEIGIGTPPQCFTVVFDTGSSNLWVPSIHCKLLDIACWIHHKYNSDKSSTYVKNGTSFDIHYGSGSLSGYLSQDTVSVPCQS
Sequence of Cathepsin D (P07339 169-412 limits assumed): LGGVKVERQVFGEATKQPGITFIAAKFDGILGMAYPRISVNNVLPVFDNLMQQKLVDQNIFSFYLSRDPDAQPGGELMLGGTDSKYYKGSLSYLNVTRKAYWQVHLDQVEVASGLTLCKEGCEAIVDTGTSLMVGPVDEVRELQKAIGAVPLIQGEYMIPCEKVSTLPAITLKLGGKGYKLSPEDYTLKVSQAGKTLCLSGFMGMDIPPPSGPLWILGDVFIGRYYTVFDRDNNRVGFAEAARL
Data set [6] in a line: Inhibition of Plasmodium malariae PLM4 using Lys-Glu-Phe-Val-Phe-NPhe-Ala-Leu-Lys as substrate by spectrophotometry.
Data set [7] can be described thus: Cytotoxicity against human HDF at 100 uM. To be noted: HDF cells, read-out: INH.
Data set [8] deals with Plasmodium falciparum. The data set can be described thus: Antiplasmodial activity against chloroquine-resistant Plasmodium falciparum W2. The format is functional, organism-based.
Data set [9] relates to Plasmodium falciparum. The data set can be described thus: Antiplasmodial activity against chloroquine-sensitive Plasmodium falciparum D10. The format is functional, organism-based.

SMILES strings stand for the structures.

On to `CCCCNC(=O)C[C@H](O)[C@H](CC(C)C)NC(=O)[C@@H](NC(=O)c1ccc(Oc2ccc(C(=O)NCCCNc3ccnc4cc(Cl)ccc34)cc2)cc1)[C@@H](C)CC`, for which the IC50 was 78 nM in the data set with Plasmodium falciparum [1], 177 nM in the data set with Plasmodium falciparum [5] and 220 nM against Cathepsin D. For the same molecule, the Ki in data set [2] was 0.7 nM; in data set [3] it was 11 nM; in [4], 5.4 nM; at Plasmepsin II (read-out: Ki), 2.3 nM; in data set [6] it was 0.93 nM.

`CCCCNC(=O)C[C@H](O)[C@H](CC(C)C)NC(=O)[C@@H](NC(=O)c1ccc(Oc2ccc(C(=O)N[C@@H](CC(C)C)C(=O)N[C@@H](CCCCN)C(=O)NCCCC(C)Nc3cc(OC)cc4cccnc34)cc2)cc1)[C@@H](C)CC` (some centres not stated): the IC50 with Plasmodium falciparum [1] is 700 nM; with Plasmodium falciparum [5], 400 nM; with Plasmodium falciparum [8] it was 400 nM; in the data set on Plasmodium falciparum [9], 400 nM. Besides, the Ki in data set [2] stood at 1.2 nM; in [3], 10 nM; in data set [4] it was 0.5 nM; on Plasmepsin II (read-out: Ki), 0.4 nM; in [6], 1.2 nM. Besides, in [7], the cytotoxicity at 100 µM came to 50%.

Take `CCCCNC(=O)C[C@H](O)[C@H](CC(C)C)NC(=O)[C@@H](NC(=O)c1ccc(Oc2ccc(C(=O)N[C@@H](CC(C)C)C(=O)N[C@@H](C)C(=O)NCCCNc3ccnc4ccccc34)cc2)cc1)[C@@H](C)CC`: the figures for the IC50 in the data set on Plasmodium falciparum [1], with Plasmodium falciparum [5] and against Cathepsin D were 474 nM, 161 nM and 300 nM, respectively. The Ki in data set [2] was 0.43 nM; in [3], 8.1 nM; in [4] it was 6.7 nM; at Plasmepsin II (read-out: Ki) it was 2.6 nM; in data set [6], 0.87 nM.

As for `CC(C)C[C@H](NC(=O)OCc1ccccc1)C(=O)N[C@@H](C)C(=O)NCCCNc1ccnc2cc(Cl)ccc12`, the results for the IC50 in the data set with Plasmodium falciparum [1] and in the data set with Plasmodium falciparum [5] were 1680 nM and 197 nM, respectively. Also, the Ki entry on Plasmepsin II is reported as “Not Active”.

On to `CCN(CC)CCCC(C)Nc1ccnc2cc(Cl)ccc12` (configuration not stated) [CHLOROQUINE], for which, on Plasmepsin II, the inhibition constant (Ki) entry is recorded as “Not Active”.

On to `CCCCNC(=O)C[C@H](O)[C@H](CC(C)C)NC(=O)[C@@H](NC(=O)c1ccc(Oc2ccc(C(=O)NCc3ccccc3)cc2)cc1)[C@@H](C)CC`, for which the IC50 with Plasmodium falciparum [1] and with Plasmodium falciparum [5] was above 7000 nM throughout. Moreover, the Ki was found to be 19 nM in data set [2]; 1.1 nM in [3]; 20 nM in [4]; 1.3 nM at Plasmepsin II (read-out: Ki); 5.8 nM in data set [6].

As to `CCCCNC(=O)C[C@H](O)[C@H](CC(C)C)NC(=O)[C@@H](NC(=O)c1ccc(Oc2ccc(C(=O)OCc3ccccc3)cc2)cc1)[C@@H](C)CC`, the IC50 worked out at 4680 nM in the data set on Plasmodium falciparum [1] and 3850 nM in the data set with Plasmodium falciparum [5]. The Ki in data set [2] stood at 4.7 nM; in [3], 0.34 nM; in data set [4] it was 2.6 nM; on Plasmepsin II (read-out: Ki) it was 1.9 nM; in data set [6], 2.1 nM.

Regarding `CCCCNC(=O)C[C@H](O)[C@H](CC(C)C)NC(=O)[C@@H](NC(=O)c1ccc(Oc2ccc(C(=O)N[C@@H](C)C(=O)NCCCNc3ccnc4cc(Cl)ccc34)cc2)cc1)[C@@H](C)CC`, the results for the IC50 with Plasmodium falciparum [1], in the data set on Plasmodium falciparum [5] and at Cathepsin D were 64 nM, 114 nM and 540 nM, respectively. Further, the inhibitory constant (Ki) came out at 0.48 nM in data set [2]; 8.5 nM in [3]; 8.7 nM in [4]; 3.8 nM at Plasmepsin II (read-out: Ki); 2.4 nM in [6].

One may read the IC50 as the concentration needed to halve the response being measured. Usually Ki stands for the equilibrium dissociation constant of an inhibitor or competing ligand from its target.
